Measured values reported in patent US20200223826A1, “Glucose-6-Phosphate Dehydrogenase (G6PD)-Modulating Agents And Methods Of Treating G6PD Deficiency” (The Board of Trustees of the Leland Stanford Junior …, priority 2017, published 2020).

Columns and labels:
human erythrocytes = assay: GSH levels in erythrocytes under oxidative stressors; assay type: cell-based; settings: drug-induced oxidative stress
Procedure: (§1) De-identified blood samples were obtained from the Stanford Blood Center. Erythrocytes were collected by filtering the samples through a cellulose slurry to remove platelets and leukocytes and then washed with saline. G6PD activity was measured (Beutler E. Red cell metabolism: A manual of biochemical methods (3rd edition). Grune & Stratton (1984)). […] A 5% erythrocyte suspension was pre-incubated with 1-5 μM AG1 at 4° C. overnight, which was followed by treatment with (or without) either 1 mM chloroquine (CQ) or 1 mM diamide for 3-4 hours at 37° C. (for hemolysis assay with chloroquine, the mixture was incubated under light). Then centrifugation at 1,000 rpm for 5 minutes was followed. Hemoglobin release in the supernatant was monitored by measuring absorbance at 540 nm. […] After wash, the samples were lysed with 0.1% Triton X-100 (final concentration), and the florescence was analyzed with excitation/emission at 485/525 nm. GSH measurement was determined using a Cayman glutathione assay kit (Cayman Chemicals, 703002). […] The absorbance was read at 412 nm. For storage assay, a 5% erythrocyte suspension was stored at 4° C. with and without 1 μM AG1, and hemolysis and G6PD activity were monitored every week for 28 days to examine whether AG1 improves preservation of erythrocytes over time. Protein leakage was also examined by measuring the absorbance of the supernatant of samples at 280 nm. […]

A- (V68M, N126D) G6PD = molecular target: T1, A- (V68M, N126D) G6PD (Homo sapiens, UniProt P11413, N126D/V68M); assay: Native gel electrophoresis, dimerization of variant
T1 construct: His (pET-28a) (N, cleaved yes); made in house; host or cells: E. coli C43 (DE3)
T1 sequence (P11413 whole entry V68M/N126D): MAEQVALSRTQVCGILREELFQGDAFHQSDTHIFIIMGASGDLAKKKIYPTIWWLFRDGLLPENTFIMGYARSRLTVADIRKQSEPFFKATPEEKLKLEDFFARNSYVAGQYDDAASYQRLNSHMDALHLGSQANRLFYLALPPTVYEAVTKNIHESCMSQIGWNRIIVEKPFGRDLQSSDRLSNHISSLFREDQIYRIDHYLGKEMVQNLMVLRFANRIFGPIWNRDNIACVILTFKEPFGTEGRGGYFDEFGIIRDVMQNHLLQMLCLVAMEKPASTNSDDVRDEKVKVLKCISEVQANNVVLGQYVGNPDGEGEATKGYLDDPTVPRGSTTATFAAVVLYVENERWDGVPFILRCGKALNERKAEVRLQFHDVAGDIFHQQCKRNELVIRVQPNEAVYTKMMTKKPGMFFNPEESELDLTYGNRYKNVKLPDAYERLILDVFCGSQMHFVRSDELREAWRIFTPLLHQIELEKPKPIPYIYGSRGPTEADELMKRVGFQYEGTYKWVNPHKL
Procedure: (§2) 200 ng of recombinant enzymes were incubated with the compound (varying in assays) for 10 minutes at room temperature. To prevent streaking and artifacts in native PAGE gel, the samples in a native state (no boiling of sample and no reducing agent in sample buffer) were electrophoresed by […]. Cross-linking assay was initiated by incubating 500 ng of recombinant enzymes in PBS with 0.1% of glutaraldehyde and different concentrations of NADP^+ (0, 10, 100, 1000 μM) or MgCl2 (0, 1, 10, 100 mM). The mixture was incubated for 10 minutes at room temperature, which was followed by the addition of 100 mM Tris (pH 8.0) at a final concentration to terminate the reaction. The samples were electrophoresed as described above.

Kaiping (R463H) G6PD = molecular target: T2, Kaiping (R463H) G6PD (Homo sapiens, UniProt P11413, R463H); assay: as above
T2 construct: His (pET-28a) (N, cleaved yes); made in house; host or cells: E. coli C43 (DE3)
T2 sequence (P11413 whole entry R463H): as the sequence (P11413 whole entry V68M/N126D) above, with M68V, D126N, R463H counted along it
Procedure: as §2

[1] = molecular target: T3, G6PD in human erythrocytes (Homo sapiens, UniProt P11413); assay: Erythrocyte refrigerated storage assay, G6PD activity; assay type: cell-based; settings: AG1 1 μM
T3 construct: host or cells: human erythrocytes
T3 sequence (P11413 2-515 limits assumed): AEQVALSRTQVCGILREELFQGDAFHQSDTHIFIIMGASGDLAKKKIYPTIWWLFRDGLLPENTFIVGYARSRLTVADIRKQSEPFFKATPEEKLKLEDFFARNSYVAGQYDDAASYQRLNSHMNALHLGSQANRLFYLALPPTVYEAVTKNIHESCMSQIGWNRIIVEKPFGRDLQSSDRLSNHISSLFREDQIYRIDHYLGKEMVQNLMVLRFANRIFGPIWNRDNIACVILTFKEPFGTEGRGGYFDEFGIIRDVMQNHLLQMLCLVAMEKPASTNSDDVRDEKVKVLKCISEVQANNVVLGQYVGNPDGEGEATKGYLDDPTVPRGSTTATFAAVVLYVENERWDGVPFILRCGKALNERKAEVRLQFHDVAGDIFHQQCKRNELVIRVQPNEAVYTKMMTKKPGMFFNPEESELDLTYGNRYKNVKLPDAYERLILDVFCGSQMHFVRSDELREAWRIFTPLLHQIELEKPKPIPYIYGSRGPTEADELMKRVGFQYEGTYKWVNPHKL
Procedure: as §1

zebrafish embryos = assay: Pericardial edema in zebrafish embryos; assay type: in vivo
Procedure: Embryos were dechorinated with pronase at 24 hours post fertilization (hpf) and treated with 50 μg/ml of chloroquine and/or AG1 by directly adding the compounds to the well. For ROS measurements, embryos were incubated with compounds for 2 hours, and then the ROS detecting reagent (CM-H2DCFDA) was added at a final concentration of 500 ng/ml to the well for a total treatment time of 5 hours. One embryo was placed to each well of a black, opaque 96-well plate. The florescence was analyzed with excitation/emission at 485/525 nm. After ROS assays, embryos at about 32 hpf were pooled and lysed in buffer containing 50 mM Tris (pH 7.4), 150 mM NaCl, 1 mM EDTA, 0.1% NP-40, and protease inhibitor cocktail, which was followed by three cycles of freeze and thawing in liquid nitrogen. The lysate was centrifuged at 14,000 rpm at 4° C. for 15 minutes. Total protein concentration in the supernatants (total lysate) was determined by Bradford method. 50 μg of total lysate was loaded onto 10% SDS-PAGE gels and the protein level was examined by Western blot using anti-G6PD antibody (Abcam (G6PD: AB87230)). 10 μg of total lysate was used for enzymatic assay. 50 μg of the lysate was used to measure NADPH levels using a NADPH quantification kit (Biovision), according to the manufacturer's instructions.
Live embryos were anesthetized and mounted in 3% methylcellulose. Embryos were imaged with a Leica M205FA microscope equipped with a 1.0× Plan Apochromatic objective and a SPOT Flex camera or a Leica DM4500B compound microscope equipped with a QImaging Retiga-SRV camera. For hemoglobin staining, fixed embryos were stained with o-dianisidine as previously reported (10), cleared, mounted in 100% glycerol, and imaged with a Leica M205FA microscope equipped with a 1.0× Plan Apochromatic objective and a SPOT Flex camera. All images were captured using SPOT or MetaMorph imaging software (Diagnostic Imaging Inc.) and processed in Photoshop (Adobe). Adjustments were limited to brightness levels and cropping. Analysis was carried out by an observer blinded to the experimental conditions.

## SCCNCCc1c[nH]c2ccccc12 [AG1, 2-[2-(1H-indol-3-yl)ethylamino]ethanethiol]
Human erythrocytes
  GSH levels: increased
A- (V68M, N126D) G6PD
  dimerization of variant: promoted their dimerization
Kaiping (R463H) G6PD
  dimerization of variant: promoted their dimerization
[1]
  G6PD activity: increased
Zebrafish embryos; chloroquine 50 μg/ml
  embryos exhibiting pericardial edema: less embryos exhibiting pericardial edema
Zebrafish embryos; tbx16 mutants
  pericardial edema due to mesoderm defects: not corrected
